Laboratory results: the NIST ThermoML archive (doi:10.1016/j.tca.2018.01.023)
Several values for one entry are separate records, joined by “and”; a condition that tells them apart may be missing. Equal entries are not always repeated.

Assay: molar heat capacity at constant pressure
Conditions: 101.33 kPa, Crystal, Small sample (50 mg) DSC

[Ca+2].[O]=[Mo](=[O])([O-])[O-] [calcium molybdate(VI)]
Conditions	molar heat capacity at constant pressure
255.5 K	107.3 J/K/mol
255.9 K	107.4 J/K/mol
256.9 K	107.5 J/K/mol
257.9 K	107.6 J/K/mol
258.9 K	107.7 J/K/mol
259.9 K	107.8 J/K/mol
260.9 K	107.8 J/K/mol
261.9 K	107.9 J/K/mol
262.9 K	108 J/K/mol
263.9 K	108.2 J/K/mol
264.9 K	108.3 J/K/mol
265.9 K	108.4 J/K/mol
266.9 K	108.6 J/K/mol
267.9 K	108.8 J/K/mol
268.9 K	109 J/K/mol
269.9 K	109.2 J/K/mol
270.9 K	109.4 J/K/mol
272 K	109.6 J/K/mol
273 K	109.8 J/K/mol
274 K	110 J/K/mol
275 K	110.3 J/K/mol
276 K	110.5 J/K/mol
277 K	110.7 J/K/mol
278 K	111 J/K/mol
279 K	111.2 J/K/mol
280 K	111.5 J/K/mol
281 K	111.6 J/K/mol
282 K	111.8 J/K/mol
283 K	112 J/K/mol
284 K	112.2 J/K/mol
285 K	112.3 J/K/mol
286 K	112.5 J/K/mol
287 K	112.7 J/K/mol
288 K	112.9 J/K/mol
289 K	113 J/K/mol
290.1 K	113.2 J/K/mol
291.1 K	113.4 J/K/mol
292.1 K	113.6 J/K/mol
293.1 K	113.8 J/K/mol
294.1 K	114 J/K/mol
295.1 K	114.1 J/K/mol
296.1 K	114.3 J/K/mol
297.1 K	114.5 J/K/mol
298.1 K	114.6 J/K/mol
298.15 K	114.2 J/K/mol
299.1 K	114.8 J/K/mol
300.1 K	115 J/K/mol
301.1 K	115.1 J/K/mol
302.1 K	115.3 J/K/mol
303.1 K	115.4 J/K/mol
304.1 K	115.6 J/K/mol
305.1 K	115.7 J/K/mol
306.1 K	115.9 J/K/mol
307.1 K	116.1 J/K/mol
308.2 K	116.2 J/K/mol
309.2 K	116.4 J/K/mol
310 K	116.5 J/K/mol
310.2 K	116.5 J/K/mol
311.2 K	116.7 J/K/mol
312.2 K	116.8 J/K/mol
313.2 K	116.9 J/K/mol
314.2 K	117.1 J/K/mol
315 K	117.3 J/K/mol
315.2 K	117.3 J/K/mol
316.2 K	117.4 J/K/mol
317.2 K	117.6 J/K/mol
317.4 K	117.7 J/K/mol
318.2 K	117.8 J/K/mol
318.4 K	118 J/K/mol
319.2 K	117.9 J/K/mol
319.4 K	118.2 J/K/mol
320 K	118.1 J/K/mol
320.2 K	118.1 J/K/mol
320.4 K	118.4 J/K/mol
321.2 K	118.3 J/K/mol
321.4 K	118.5 J/K/mol
322.2 K	118.5 J/K/mol
322.4 K	118.6 J/K/mol
323.2 K	118.6 J/K/mol
323.4 K	118.8 J/K/mol
324.2 K	118.7 J/K/mol
324.4 K	118.9 J/K/mol
325 K	118.8 J/K/mol
325.2 K	118.8 J/K/mol
325.4 K	119 J/K/mol
326.2 K	119 J/K/mol
326.4 K	119.1 J/K/mol
327.2 K	119.1 J/K/mol
327.4 K	119.2 J/K/mol
328.2 K	119.2 J/K/mol
328.4 K	119.4 J/K/mol
329.2 K	119.3 J/K/mol
329.4 K	119.5 J/K/mol
330 K	119.5 J/K/mol
330.2 K	119.5 J/K/mol
330.4 K	119.6 J/K/mol
331.3 K	119.7 J/K/mol
331.4 K	119.7 J/K/mol
332.3 K	119.9 J/K/mol
332.4 K	119.8 J/K/mol
333.3 K	120 J/K/mol
333.4 K	120 J/K/mol
334.3 K	120.1 J/K/mol
334.4 K	120.1 J/K/mol
335 K	120.2 J/K/mol
335.3 K	120.2 J/K/mol
335.4 K	120.3 J/K/mol
336.3 K	120.3 J/K/mol
336.4 K	120.4 J/K/mol
337.3 K	120.5 J/K/mol
337.4 K	120.6 J/K/mol
338.3 K	120.6 J/K/mol
338.4 K	120.7 J/K/mol
339.3 K	120.7 J/K/mol
339.4 K	120.9 J/K/mol
340 K	120.9 J/K/mol
340.3 K	120.8 J/K/mol
340.4 K	121 J/K/mol
341.3 K	121 J/K/mol
341.4 K	121.1 J/K/mol
342.3 K	121.2 J/K/mol
342.4 K	121.2 J/K/mol
343.3 K	121.4 J/K/mol
343.4 K	121.4 J/K/mol
344.3 K	121.5 J/K/mol
344.4 K	121.5 J/K/mol
345 K	121.5 J/K/mol
345.3 K	121.7 J/K/mol
345.4 K	121.6 J/K/mol
346.3 K	121.8 J/K/mol
346.4 K	121.8 J/K/mol
347.3 K	121.9 J/K/mol
347.4 K	122 J/K/mol
348.3 K	122 J/K/mol
348.4 K	122.3 J/K/mol
349.3 K	122.1 J/K/mol
349.4 K	122.6 J/K/mol
350 K	122.2 J/K/mol
350.3 K	122.2 J/K/mol
350.4 K	122.6 J/K/mol
351.3 K	122.3 J/K/mol
351.4 K	122.6 J/K/mol
352.3 K	122.4 J/K/mol
352.4 K	122.5 J/K/mol
353.3 K	122.5 J/K/mol
353.4 K	122.5 J/K/mol
354.3 K	122.7 J/K/mol
354.4 K	122.6 J/K/mol
355 K	122.8 J/K/mol
355.3 K	122.8 J/K/mol
355.4 K	122.7 J/K/mol
356.3 K	122.9 J/K/mol
356.4 K	123 J/K/mol
357.3 K	123.1 J/K/mol
357.4 K	123.2 J/K/mol
358.3 K	123.3 J/K/mol
358.4 K	123.4 J/K/mol
359.3 K	123.4 J/K/mol
359.4 K	123.5 J/K/mol
360 K	123.4 J/K/mol
360.3 K	123.6 J/K/mol
360.4 K	123.6 J/K/mol
361.4 K	123.7 J/K/mol
362.4 K	123.8 J/K/mol
363.4 K	123.9 J/K/mol
364.4 K	124.1 J/K/mol and 124 J/K/mol
365 K	124 J/K/mol
365.4 K	124.2 J/K/mol and 124.1 J/K/mol
366.4 K	124.3 J/K/mol and 124.2 J/K/mol
367.4 K	124.4 J/K/mol and 124.3 J/K/mol
368.4 K	124.5 J/K/mol and 124.4 J/K/mol
369.4 K	124.6 J/K/mol
370 K	124.6 J/K/mol
370.4 K	124.7 J/K/mol
371.4 K	124.8 J/K/mol and 124.9 J/K/mol
372.4 K	125 J/K/mol
373.4 K	125.1 J/K/mol
374.4 K	125.2 J/K/mol
375 K	125.2 J/K/mol
375.4 K	125.3 J/K/mol
376.4 K	125.4 J/K/mol
377.4 K	125.6 J/K/mol and 125.5 J/K/mol
378.4 K	125.7 J/K/mol and 125.5 J/K/mol
379.4 K	125.9 J/K/mol and 125.6 J/K/mol
380 K	125.8 J/K/mol
380.4 K	126 J/K/mol and 125.7 J/K/mol
381.4 K	126.1 J/K/mol and 125.8 J/K/mol
382.4 K	126.2 J/K/mol and 125.9 J/K/mol
383.4 K	126.3 J/K/mol and 126 J/K/mol
384.4 K	126.3 J/K/mol and 126.2 J/K/mol
385 K	126.3 J/K/mol
385.4 K	126.4 J/K/mol and 126.3 J/K/mol
386.4 K	126.4 J/K/mol
387.4 K	126.5 J/K/mol
388.4 K	126.6 J/K/mol and 126.7 J/K/mol
389.4 K	126.8 J/K/mol
390 K	126.8 J/K/mol
390.4 K	126.9 J/K/mol and 126.8 J/K/mol
391.4 K	127.1 J/K/mol
391.5 K	126.9 J/K/mol
392.4 K	127.2 J/K/mol
392.5 K	127 J/K/mol
393.4 K	127.3 J/K/mol
393.5 K	127.1 J/K/mol
394.4 K	127.4 J/K/mol
394.5 K	127.2 J/K/mol
395 K	127.4 J/K/mol
395.4 K	127.5 J/K/mol
